The IC50 is the concentration that gives 50% inhibition. Low readings indicate inhibition by little substance, high ones a need for much substance.

The text below walks through data of ChEMBL document CHEMBL1151555, “Total synthesis of an optically active 8-carba-physostigmine analog: a potent acetylcholinesterase inhibitor” (Bioorg Med Chem Lett, 1991).

The assay deals with Acetylcholinesterase (Homo sapiens, UniProt P22303). Briefly: Concentration required to inhibit acetylcholinesterase isolated from human erythrocytes.
Sequence of Acetylcholinesterase (P22303 whole entry): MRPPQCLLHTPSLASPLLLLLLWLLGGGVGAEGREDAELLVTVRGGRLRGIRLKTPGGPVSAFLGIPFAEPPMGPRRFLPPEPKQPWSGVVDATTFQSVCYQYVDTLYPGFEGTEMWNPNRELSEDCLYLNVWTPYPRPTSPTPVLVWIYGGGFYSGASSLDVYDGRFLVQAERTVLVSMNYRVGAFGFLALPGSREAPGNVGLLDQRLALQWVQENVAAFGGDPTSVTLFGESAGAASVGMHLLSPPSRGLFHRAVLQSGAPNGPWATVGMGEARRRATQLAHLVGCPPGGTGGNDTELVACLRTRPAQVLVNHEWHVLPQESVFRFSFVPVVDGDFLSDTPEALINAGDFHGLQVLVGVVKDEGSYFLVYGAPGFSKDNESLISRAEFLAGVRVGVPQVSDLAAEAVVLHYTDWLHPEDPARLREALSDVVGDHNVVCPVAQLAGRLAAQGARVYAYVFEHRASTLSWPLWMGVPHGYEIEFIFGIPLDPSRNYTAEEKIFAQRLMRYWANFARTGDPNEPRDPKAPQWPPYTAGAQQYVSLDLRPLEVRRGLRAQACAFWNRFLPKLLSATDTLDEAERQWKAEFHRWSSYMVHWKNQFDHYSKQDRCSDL

Compound `CCCCCCNC(=O)Oc1ccc2c(c1)[C@]1(C)CCN(CC)[C@@H]1C2` displayed an IC50 of 20 nM.
`CCCCCCNC(=O)Oc1ccc2c(c1)[C@@]1(C)CCN(CC)[C@H]1C2` yielded an IC50 of 233 nM.
